The record followed here is patent US20250368633A1, “AZEPINE FUSED RING COMPOUND AS RIPK1 INHIBITOR AND USE THEREOF” (ARTIVILA BIOPHARMA, priority 2022, published 2025).

Assay [1] has as its system U937 cells. In words: EC50 of necroptosis inhibition in U937 cells (TSZ-induced, CellTiter-Glo). The class given is cell-based. The settings on record: Homo sapiens, U-937; TSZ (hTNF-α, SM-164, Z-VAD-FMK) 20 hours; 10 concentration points; read-out: EC50 intervals of necroptosis inhibition in U937 cells. A digest of the protocol: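 U937 cells pretreated 15 min with compound (10-point, 1:3 series), then necroptosis induced by TSZ (hTNF-α, SM-164, Z-VAD-FMK) for 20 h at 37 °C. Viability measured as ATP by CellTiter-Glo luminescence; inhibition normalised to untreated and TSZ-only wells, EC50 from four-parameter fit.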
A general note: Cellular ATP, detected with luciferase, serves as a proxy for viable cell number.

In assay [2] the test system is U937 cells. In words: Inhibition rate of compound (1 μM) on necroptosis of U937 cells (TSZ-induced, CellTiter-Glo). It counts as cell-based. To be noted: TSZ (hTNF-α, SM-164, Z-VAD-FMK) 20 hours. A digest of the protocol: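 U937 cells were pretreated 15 min with compound, then necroptosis was triggered with TSZ (Z-VAD-FMK, hTNF-α, SM-164) for 20 h at 37° C. Viability was read as ATP by CellTiter-Glo luminescence, and inhibition (%) was taken relative to no-TSZ and TSZ-only wells.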

For the next assay, the target named is T1, RIPK1 kinase (Homo sapiens, UniProt Q13546).
T1 construct: purchased Promega VA7593
T1 sequence (Q13546 1-671): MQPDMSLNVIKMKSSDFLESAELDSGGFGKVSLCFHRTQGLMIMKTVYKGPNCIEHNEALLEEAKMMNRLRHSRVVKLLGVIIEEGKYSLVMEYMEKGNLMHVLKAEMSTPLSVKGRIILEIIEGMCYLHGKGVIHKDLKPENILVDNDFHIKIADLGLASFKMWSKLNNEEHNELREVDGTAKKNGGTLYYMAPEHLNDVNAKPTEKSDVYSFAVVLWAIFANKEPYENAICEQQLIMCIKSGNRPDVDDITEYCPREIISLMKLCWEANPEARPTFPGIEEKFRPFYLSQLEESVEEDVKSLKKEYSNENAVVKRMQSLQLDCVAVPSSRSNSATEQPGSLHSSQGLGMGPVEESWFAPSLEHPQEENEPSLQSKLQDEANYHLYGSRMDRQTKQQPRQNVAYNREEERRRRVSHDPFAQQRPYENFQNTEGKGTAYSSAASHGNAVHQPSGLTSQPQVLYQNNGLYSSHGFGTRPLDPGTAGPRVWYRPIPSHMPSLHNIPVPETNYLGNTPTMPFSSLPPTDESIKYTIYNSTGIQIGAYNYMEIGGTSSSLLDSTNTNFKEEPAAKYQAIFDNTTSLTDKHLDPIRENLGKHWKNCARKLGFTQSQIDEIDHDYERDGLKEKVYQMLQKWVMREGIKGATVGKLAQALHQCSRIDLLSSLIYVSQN
In words: In vitro RIPK1 kinase activity IC50 assay (ADP-Glo). It counts as biochemical. To be noted: ATP 10 μM; MBP substrate 100 μg/mL; 8 concentration points; read-out: IC50 range of compounds for RIPK1 kinase activity. On the procedure:
RIPK1 kinase activity was assayed using the ADP-Glo assay and RIPK1 kinase reaction system (Promega, catalog number: VA7593). The RIPK1 kinase activity assay was performed according to the Promega kit manual.
The experimental method was briefly described as below. The concentration of RIPK1 kinase in the RIPK1 kinase reaction system was determined by kinase titration and S/B10. The compound was diluted with 1× kinase buffer D (1% DMSO), 1 μL of 1 mM compound DMSO stock solution was added to 19 μL 1× kinase buffer D, and the compound was serially diluted with 1× kinase buffer D at a ratio of 1:5, for a total of 8 concentration points, and a control with the same DMSO volume was set. RIPK1 kinase was diluted with 1× kinase buffer D. 2.5×ATP/substrate was diluted with 1× kinase buffer D. The final concentration of ATP in the kinase reaction system was 10 μM. The final concentration of MBP substrate was 100 μg/mL. 1 μL of diluted compound and 2 μL of diluted RIPK1 kinase were mixed, incubated at room temperature for 15 minutes, 2 μL of 2.5×ATP/substrate was added, mixed, and incubated at room temperature for 1 hour. 5 μL ADP-Glo reagent was added to each well and incubated at room temperature for 1 hour. 10 μL ADP detection reagent was added to each well and incubated at room temperature for another 0.5-1 hour. The chemiluminescent signal was read with a microplate reader and the kinase activity inhibition rate was calculated. IC50 was obtained by fitting the nonlinear regression curve log [inhibitor] vs. response-variable slope (four parameters) in GraphPad Prism.
On the technique in general: In ADP-Glo the light output rises with the ADP produced.

Regarding `C[C@@H](NC(=O)C(=O)N[C@H]1COc2ccc(C#CCCO)cc2N(C)C1=O)c1ccccc1` [Example 125, N^1-((S)-7-(4-hydroxybut-1-yn-1-yl)-5-methyl-4-oxo-2,3,4,5-tetrahydrobenzo[b][1,4]oxazepin-3-yl)-N^2-((R)-1-phenylethyl)oxalamide], the EC50 in the assay on U937 cells [1] is under 100 nM. Besides, the “Inhibition rate range of compounds (1 μM) on U937 cell necroptosis” value in the assay with U937 cells [2] is “A (A: ≥90%)”. Also, the IC50 at RIPK1 kinase is under 100 nM.

As usually defined, the EC50 is the concentration needed to bring the measured effect to its halfway point. One may read the IC50 as the concentration that inhibits the measured activity by half.
